Like-named read-outs stand apart in the source and are kept apart here.
What was measured:
microglia = test: Microglial myelin debris phagocytosis assay; format: cell-based, rat; conditions: any concentration, activated microglia, 90 min myelin debris
Experimental: Fluoromyelin-labeled myelin debris was added for 90 min and then the cultures were fixed. IBA1^+/fluoromyelin^+ cells were quantified and normalized to total IBA1^+ cells.
For phagocytosis, microglia were harvested from cortical cultures generated from P2 rats. Cortices were isolated, meninges removed, minced and digested in 0.05% trypsin (Invitrogen, Carlsbad, CA, Carlsbad, CA) for 15 min at 37 °C. Tissue was allowed to settle, trypsin removed and HBSS (Corning, Glendale, AZ) with 20% FBS (20% HBSS) was added to halt further digestion. Tissue was washed again in 20% HBSS and resuspended in DMEM with 10% FBS and penicillin/streptomycin (10% DMEM). Cells were plated in a T150 flask and cultured for 10 days with media changes every other day. Microglia were mechanically isolated by tapping flask against the hood surface. Microglia were transferred to a conical and centrifuged at 800 × g for 15 min and resuspended in 10% DMEM, plated in 96 wells at a density of 5000/well and cultured for 3 days. […] Fluoromyelin labeled myelin debris was added to each well and incubated for 90 min. Microglia were then fixed and immunostained for IBA1 (Invitrogen, Carlsbad, CA, Carlsbad, CA). […]
Supplemental Figure 7. […] Total IBA1^+ and IBA1^+/fluoromyelin^+ cells were counted. […]

MOG-EAE mouse model = test: MOG-EAE mouse model, g-ratios by electron microscopy; format: in vivo
Experimental: In control, non-EAE mice, 90.9% of the axons were myelinated (g-ratio < 1). In vehicle treated MOG-EAE mice, only 73.4% of axons were myelinated.
Remyelinated axons canonically have thin myelin[41]. As such, we examined axons with g-ratios ≥ 0.8 but less than 1 as a surrogate measure of a remyelinating axon.
To confirm this, g-ratios in the optic nerve were similarly quantified. […] In non-MOG-EAE mice, 86.4% of the axons were myelinated. […] At 0.3 mg/kg, 85.5% were myelinated. When thinly myelinated axons were quantified, 30.2% in the MOG-treated vehicle group were observed, compared to 50.7% in the non-MOG control.
Study termination was the last day that clinical scores were determined for all study animals (Day 24). Since VEP recordings required several days (Days 21–24), oral dosing continued through perfusion, which was performed on Day 24 or Day 25. On Day 24 or 25, and following completion of VEP recordings, mice were deeply anesthetized with isoflurane anesthesia and whole body perfused with EM grade Karnovsky’s fixative (3% glutaraldehyde, 2% paraformaldehyde in 0.1 M phosphate buffer, pH 7.4; part # 15732-10; Electron Microscopy Sciences, Hatfield, PA). Spinal columns and optic nerves were collected and stored in fixative at 4 °C until further processing. After at 3–5 days in fixative, spinal cords were isolated and dissected from the vertebrae. Approximately 2 mm of the most caudal lumbar region was trimmed and segmented and, along with the optic nerves, shipped to Charles River Laboratories (Durham, NC) for processing for and imaging by electron microscopy.
The blocks were polymerized overnight at ~ 85 °C, and semi-thin sections (~ 1 μm, one per tissue) prepared and stained with toluidine blue using standard protocols. Semi-thin images were evaluated, and the most caudal region was identified as the region of focus for thin sections. Thin sections of ~ 100 nm were prepared using standard protocols and the grids were imaged at 1500 × on a JEOL JEM-1400 + transmission electron microscope fitted with an AMT 16 MP digital camera system. The direct magnification used was 1500 × or 4000 × for spinal cord and optic nerve, respectively.
Digital EM images were analyzed using ImageJ (NIH, Bethesda, MD) measure the circumference of the axon and, when present, the myelin sheath, and g-ratios were calculated. For spinal cord analysis, 4 representative images were analyzed per animal and the results pooled, and the percentages calculated from the animal total. For optic nerve analysis, 1 representative image was analyzed per optic nerve and each optic nerve was treated as a separate data point.

LPA1 = target: T1, LPA1 (Mus musculus, UniProt P61793); test: In vivo brain LPA1 receptor occupancy with [3H]-OPC3497
T1 construct: from tissue; host or cells: mouse brain (homogenate; forebrain of dosed C57BL6/N mice in the in vivo studies)
Experimental: [^3H]-OPC3497 was diluted to 9.8 µCi/mL in saline and administered via IV injection to the lateral tail vein at a dose volume of 5 ml/kg at the times indicated. Mice were euthanized by decapitation, trunk blood collected into K3EDTA tubes and stored on wet ice, each brain rapidly dissected and the forebrain isolated, weighed and placed into a 5 ml polypropylene tube. Tissues were diluted with a 10 × volume of ice-cold binding buffer (50 mM HEPES, 100 mM NaCl, 2 mM EDTA, pH 7.4). Brains were homogenized and 350 µl of the homogenate was filtered over Whatman GF/B filters (GE Life Sciences, Marlborough, MA) pre-wetted with 0.5% polyethyleneimine. Filters were washed with cold 50 mM TRIS–HCl, 154 mM NaCl, 0.05% Tween 20, pH 7.4 twice and dried in an oven (~ 40–50 °C). 5 ml Ultima Gold F scintillation fluid (Perkin Elmer, Boston, MA, Boston, MA) was added to each tube and samples read on a Beckman LS6500 liquid scintillation counter. After all samples were collected, dissected, and filtered, the previously collected blood in K3EDTA tubes was centrifuged (1450 × g, 10 min, 4 °C) to separate plasma.

T1 sequence (P61793 whole entry): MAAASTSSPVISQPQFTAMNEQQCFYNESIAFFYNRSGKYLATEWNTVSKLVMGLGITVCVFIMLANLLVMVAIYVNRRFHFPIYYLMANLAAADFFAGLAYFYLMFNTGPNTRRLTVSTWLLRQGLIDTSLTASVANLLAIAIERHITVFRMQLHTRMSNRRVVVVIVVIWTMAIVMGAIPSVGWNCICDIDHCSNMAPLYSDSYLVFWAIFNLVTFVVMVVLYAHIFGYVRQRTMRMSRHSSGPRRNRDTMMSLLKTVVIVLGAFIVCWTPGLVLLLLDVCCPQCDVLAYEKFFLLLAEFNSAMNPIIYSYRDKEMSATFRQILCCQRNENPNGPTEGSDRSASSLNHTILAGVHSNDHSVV

SMILES: COc1ccc(NC(=O)N(c2ccccc2C(C)C)C2CCC(C(=O)O)CC2)c(OC(F)F)n1 (centres unmarked) [PIPE-791]
- effect on myelin phagocytosis compared to vehicle (microglia): No significant decrease
- myelinated axons, optic nerve (MOG-EAE mouse model; 0.3 mg/kg): 85.5%
- thinly myelinated axons, optic nerve (MOG-EAE mouse model; 0.3 mg/kg): 44.7%
- myelinated axons, optic nerve (MOG-EAE mouse model; 3 mg/kg): 86.1%
- thinly myelinated axons, optic nerve (MOG-EAE mouse model; 3 mg/kg): 50.6%
- time for which LPA1 occupancy was sustained (LPA1; 3 mg/kg oral, followed out to 7 days): 24 h
- EC50 (LPA1; once daily for 4 consecutive days (steady state), read-out: unbound brain EC50): 2.4 nM
- LPA1 receptor occupancy ED50 (LPA1; single oral dose 2 h prior to radioligand, mouse brain): 0.17 mg/kg
- LPA1 receptor occupancy ED50 (LPA1; single oral dose 24 h prior to radioligand, mouse brain): 0.19 mg/kg
- EC50 (LPA1; single oral dose, unbound brain concentration versus occupancy, read-out: unbound brain EC50 (Cu, brain)): 2.2 nM
- LPA1 receptor occupancy ED50 (LPA1; steady state: once daily for 4 days, occupancy 2 h after fourth dose): 0.03 mg/kg

— paper PMC11079064, “Discovery of a brain penetrant small molecule antagonist targeting LPA1 receptors to reduce neuroinflammation and promote remyelination in multiple sclerosis” (Scientific Reports, 2024)
